{
  "source": "patent US4063022A",
  "about": "“Antisecretory 2-imidazolidinones” (Morton-Norwich Products, Inc., priority 1976, dated 1977)",
  "system": "gastric acid secretion",
  "test": "modified standard pylorus-ligated secretory testing procedure in the rat",
  "assay_type": "in vivo, Sprague-Dawley rats",
  "settings": "300 mg/kg p.o. 1 hr prior to pylorus ligation, 4 hrs after ligation; for % of Control Vol. of Gastric Secretion: control 0.5% Methocel; for % of Control Gastric Acid Output: titration to pH 7, control 0.5% Methocel",
  "procedure": "Such effect is evidenced using a modified standard pyloruslighted secretory testing procedure in the rat. Sprague-Dawley rats, weighing […] and previously fasted for 24 hrs, were used. All compounds were given perorally as suspensions in 0.5% Methocel 1 hr prior to pylorus ligation. Under light ether anesthesia, the rat stomach was ligated at the pylorus region. Four hrs after ligation the conscious rat was sacrificed by a chloroform overdose. The stomach was carefully excised and its content drained into a centrifuge tube. Samples were centrifuged to separate secretions from debris. Gastric fluid volume reading and determination of sample contamination, based on debris and sample color, was made. Titration was performed on a sample aliquot of 1 ml diluted to a volume of 5 ml using distilled water. The titrant used was 0.1N NaOH. Total gastric acid output in the stomach was determined by titration to ph 7. A dose of 300 mg/kg p.o. of a compound was administered to a group of rats and its effect on the volume of gastric secretion and acid output compared to a control group receiving 0.5% Methocel p.o. The activity of each compound based on the degree of inhibition of gastric acid output is set forth in Table I.",
  "data": [
    {"smiles": "O=C1NCCN1Cc1ccc(Cl)c(C(F)(F)F)c1", "note": "[Example 11-C, 1-(4-Chloro-3-trifluoromethylbenzyl)-2-imidazolidinone]", "values": [
      {"measurement": "% of Control Vol. of Gastric Secretion", "value": "23.0 % of Control"},
      {"measurement": "% of Control Gastric Acid Output", "value": "16.8 % of Control"}
    ]},
    {"smiles": "CN1CCN(Cc2ccc(Cl)c(Cl)c2)C1=O", "note": "[I-B, 1-(3,4-Dichlorobenzyl)-3-methyl-2-imidazolidinone]", "values": [
      {"measurement": "% of Control Vol. of Gastric Secretion", "value": "39.2 % of Control"},
      {"measurement": "% of Control Gastric Acid Output", "value": "8.9 % of Control"}
    ]}
  ]
}
